This note sets out measurements from patent US20240239861A1, “GLUCAGON-RECEPTOR SELECTIVE POLYPEPTIDES AND METHODS OF USE THEREOF” (i2O Therapeutics, Inc., priority 2016, published 2024).

One experiment deals with human GLP-1R (Homo sapiens, UniProt P43220). In words: Peptide-receptor mediated cAMP accumulation (LANCE Ultra cAMP) in CHO-K1 cells transfected with human GLP-1R. It counts as cell-based. As to conditions: Table 7; GLP-1R; read-out: GLP-1R pEC50 (converted). On the technique in general: cAMP levels reflect the balance of adenylyl cyclase and phosphodiesterase activity.
The target of another experiment is human GCGR (Homo sapiens, UniProt P47871). In words: Peptide-receptor mediated cAMP accumulation (LANCE Ultra cAMP) in CHO-K1 cells transfected with human GCGR. It counts as cell-based. As to conditions: read-out: GluR pEC50 (converted).

*1 amine or outer side, *2 acyl side, *3 side chain or, on linkers, in order; H or OH if unused. Where a SMILES comes first, the peptide text is derived from it. Side-chain parts run from the residue outwards. [ ]: non-standard residue; d: D form. The star is where a group is joined. C18 diacid = O=C(O)CCCCCCCCCCCCCCCCC(=O)*; γGlu = O=C(O)[C@H](CCC(=O)[*:2])N[*:1]; Palmitoyl = CCCCCCCCCCCCCCCC(=O)*; AEEA = NCCOCCOCC(=O)O; Aib = CC(C)(N)C(=O)O

Sequence of human GCGR (P47871 26-477): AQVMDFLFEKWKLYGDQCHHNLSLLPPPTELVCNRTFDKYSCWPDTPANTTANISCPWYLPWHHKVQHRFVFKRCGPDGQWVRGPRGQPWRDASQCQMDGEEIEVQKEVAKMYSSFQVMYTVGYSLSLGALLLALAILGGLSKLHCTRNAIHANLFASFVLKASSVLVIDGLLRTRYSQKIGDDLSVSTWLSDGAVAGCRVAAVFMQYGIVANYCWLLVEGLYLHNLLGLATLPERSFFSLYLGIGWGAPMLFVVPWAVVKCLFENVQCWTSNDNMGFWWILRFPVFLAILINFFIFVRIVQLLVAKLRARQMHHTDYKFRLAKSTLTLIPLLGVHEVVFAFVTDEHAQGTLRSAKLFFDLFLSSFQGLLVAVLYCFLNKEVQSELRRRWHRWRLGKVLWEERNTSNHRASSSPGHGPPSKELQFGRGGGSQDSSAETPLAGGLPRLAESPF
Sequence of human GLP-1R (P43220 24-463): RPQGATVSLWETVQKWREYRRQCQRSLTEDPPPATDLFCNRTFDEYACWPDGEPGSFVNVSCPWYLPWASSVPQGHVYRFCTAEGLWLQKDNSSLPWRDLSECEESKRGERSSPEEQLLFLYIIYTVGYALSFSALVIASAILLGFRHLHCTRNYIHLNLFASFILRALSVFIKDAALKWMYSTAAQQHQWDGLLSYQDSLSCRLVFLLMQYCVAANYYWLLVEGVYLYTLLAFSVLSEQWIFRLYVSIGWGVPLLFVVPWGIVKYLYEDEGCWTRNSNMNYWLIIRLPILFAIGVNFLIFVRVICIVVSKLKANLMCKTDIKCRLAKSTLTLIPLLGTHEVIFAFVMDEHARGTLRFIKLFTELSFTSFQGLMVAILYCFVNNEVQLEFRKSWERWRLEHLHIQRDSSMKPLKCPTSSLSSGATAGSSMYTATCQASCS

On to `CCCCCCCCCCCCCCCC(=O)N[C@@H](CCC(=O)NCCCC[C@H](NC(=O)[C@H](CC(=O)O)NC(=O)[C@H](CC(C)C)NC(=O)[C@H](Cc1ccc(O)cc1)NC(=O)[C@H](CCCCN)NC(=O)[C@H](CO)NC(=O)[C@H](Cc1ccc(O)cc1)NC(=O)[C@H](CC(=O)O)NC(=O)[C@H](CO)NC(=O)[C@@H](NC(=O)[C@H](Cc1ccccc1)NC(=O)[C@@H](NC(=O)CNC(=O)[C@H](CCC(N)=O)NC(=O)[C@H](CO)NC(=O)[C@@H](N)Cc1c[nH]c2ccccc12)[C@@H](C)O)[C@@H](C)O)C(=O)N[C@@H](CCCCN)C(=O)N[C@@H](CCCNC(=N)N)C(=O)N[C@@H](C)C(=O)N[C@@H](CCC(N)=O)C(=O)N[C@@H](CCC(=O)O)C(=O)N[C@@H](Cc1ccccc1)C(=O)N[C@H](C(=O)NC(C)(C)C(=O)N[C@@H](Cc1c[nH]c2ccccc12)C(=O)N[C@@H](CC(C)C)C(=O)N[C@@H](CCC(=O)O)C(=O)N[C@@H](CC(=O)O)C(=O)N[C@@H](CCC(=O)O)C(=O)N1CCC[C@H]1C(=O)N[C@@H](CO)C(=O)N[C@@H](CO)C(=O)NCC(=O)N[C@@H](C)C(=O)N1CCC[C@H]1C(=O)N1CCC[C@H]1C(=O)N1CCC[C@H]1C(=O)N[C@@H](CO)C(=O)O)C(C)C)C(=O)O` [Compound B19] (H-WSQGTFTSDYSKYLDK([γGlu-Palmitoyl])KRAQEFV[Aib]WLEDEPSSGAPPPS-OH), for which the figures for the EC50 on human GLP-1R and at human GCGR were 501 nM and 0.0251 nM, respectively.

As to `CCCCCCCCCCCCCCCC(=O)N[C@@H](CCC(=O)NCCCC[C@H](NC(=O)[C@H](CC(=O)O)NC(=O)[C@H](CO)NC(=O)[C@@H](NC(=O)[C@H](Cc1ccccc1)NC(=O)[C@@H](NC(=O)CNC(=O)[C@H](CCC(N)=O)NC(=O)[C@H](CO)NC(=O)[C@@H](N)Cc1c[nH]c2ccccc12)[C@@H](C)O)[C@@H](C)O)C(=O)N[C@@H](CO)C(=O)N[C@@H](CCCCN)C(=O)N[C@@H](Cc1ccc(O)cc1)C(=O)N[C@@H](CC(C)C)C(=O)N[C@@H](CC(=O)O)C(=O)NC(C)(C)C(=O)N[C@@H](CCCCN)C(=O)N[C@@H](CCCNC(=N)N)C(=O)N[C@@H](C)C(=O)N[C@@H](CCC(N)=O)C(=O)N[C@@H](CCC(=O)O)C(=O)N[C@@H](Cc1ccccc1)C(=O)N[C@H](C(=O)NC(C)(C)C(=O)N[C@@H](Cc1c[nH]c2ccccc12)C(=O)N[C@@H](CC(C)C)C(=O)N[C@@H](CCC(=O)O)C(=O)N[C@@H](CC(=O)O)C(=O)N[C@@H](CCC(=O)O)C(=O)N1CCC[C@H]1C(=O)N[C@@H](CO)C(=O)N[C@@H](CO)C(=O)NCC(=O)N[C@@H](C)C(=O)N1CCC[C@H]1C(=O)N1CCC[C@H]1C(=O)N1CCC[C@H]1C(=O)N[C@@H](CO)C(=O)O)C(C)C)C(=O)O` [Compound B20] (H-WSQGTFTSDK([γGlu-Palmitoyl])SKYLD[Aib]KRAQEFV[Aib]WLEDEPSSGAPPPS-OH), the EC50 on human GLP-1R was 316 nM; on human GCGR it was 0.00794 nM.

As to `CC(C)C[C@H](NC(=O)[C@H](Cc1ccc(O)cc1)NC(=O)[C@H](CCCCN)NC(=O)[C@H](CO)NC(=O)[C@H](Cc1ccc(O)cc1)NC(=O)[C@H](CC(=O)O)NC(=O)[C@H](CO)NC(=O)[C@@H](NC(=O)[C@H](Cc1ccccc1)NC(=O)[C@@H](NC(=O)CNC(=O)[C@H](CCC(N)=O)NC(=O)[C@H](CO)NC(=O)[C@@H](N)Cc1c[nH]c2ccccc12)[C@@H](C)O)[C@@H](C)O)C(=O)N[C@@H](CC(=O)O)C(=O)N[C@@H](CCCCNC(=O)COCCOCCNC(=O)COCCOCCNC(=O)CC[C@H](NC(=O)CCCCCCCCCCCCCCCCC(=O)O)C(=O)O)C(=O)N[C@@H](CCCCN)C(=O)N[C@@H](CCCNC(=N)N)C(=O)N[C@@H](C)C(=O)N[C@@H](CCC(N)=O)C(=O)N[C@@H](CCC(=O)O)C(=O)N[C@@H](Cc1ccccc1)C(=O)N[C@H](C(=O)NC(C)(C)C(=O)N[C@@H](Cc1c[nH]c2ccccc12)C(=O)N[C@@H](CC(C)C)C(=O)N[C@@H](CCC(=O)O)C(=O)N[C@@H](CC(=O)O)C(=O)N[C@@H](CCC(=O)O)C(=O)N1CCC[C@H]1C(=O)N[C@@H](CO)C(=O)N[C@@H](CO)C(=O)NCC(=O)N[C@@H](C)C(=O)N1CCC[C@H]1C(=O)N1CCC[C@H]1C(=O)N1CCC[C@H]1C(=O)N[C@@H](CO)C(=O)O)C(C)C` [Compound B23] (H-WSQGTFTSDYSKYLDK([AEEA-AEEA-γGlu-C18 diacid])KRAQEFV[Aib]WLEDEPSSGAPPPS-OH), the results for the EC50 at human GLP-1R and at human GCGR were 316 nM and 0.316 nM, respectively.

Turning to `CCCCCCCCCCCCCCCC(=O)N[C@@H](CCC(=O)NCCCC[C@H](NC(=O)[C@H](CO)NC(=O)[C@H](CO)NC(=O)[C@@H]1CCCN1C(=O)[C@H](CCC(=O)O)NC(=O)[C@H](CC(=O)O)NC(=O)[C@H](CCC(=O)O)NC(=O)[C@H](CC(C)C)NC(=O)[C@H](Cc1c[nH]c2ccccc12)NC(=O)[C@@H](NC(=O)[C@@H](NC(=O)[C@H](Cc1ccccc1)NC(=O)[C@H](CCC(=O)O)NC(=O)[C@H](CCC(N)=O)NC(=O)[C@H](C)NC(=O)[C@H](CCCNC(=N)N)NC(=O)[C@H](CCCCN)NC(=O)C(C)(C)NC(=O)[C@H](CC(=O)O)NC(=O)[C@H](CC(C)C)NC(=O)[C@H](Cc1ccc(O)cc1)NC(=O)[C@H](CCCCN)NC(=O)[C@H](CO)NC(=O)[C@H](Cc1ccc(O)cc1)NC(=O)[C@H](CC(=O)O)NC(=O)[C@H](CO)NC(=O)[C@@H](NC(=O)[C@H](Cc1ccccc1)NC(=O)[C@@H](NC(=O)CNC(=O)[C@H](Cc1c[nH]cn1)NC(=O)[C@H](CO)NC(=O)[C@@H](N)Cc1ccc(O)cc1)[C@@H](C)O)[C@@H](C)O)C(C)C)[C@@H](C)CC)C(=O)N[C@@H](C)C(=O)N1CCC[C@H]1C(=O)N1CCC[C@H]1C(=O)N1CCC[C@H]1C(=O)N[C@@H](CO)C(=O)O)C(=O)O` [Compound B25], the EC50 on human GLP-1R is above 1000 nM; at human GCGR, 0.0316 nM.

For the molecule `CCCCCCCCCCCCCCCC(=O)N[C@@H](CCC(=O)NCCCC[C@H](NC(=O)[C@H](CC(=O)O)NC(=O)[C@H](CC(C)C)NC(=O)[C@H](Cc1ccc(O)cc1)NC(=O)[C@H](CCCCN)NC(=O)[C@H](CO)NC(=O)[C@H](Cc1ccc(O)cc1)NC(=O)[C@H](CC(=O)O)NC(=O)[C@H](CO)NC(=O)[C@@H](NC(=O)[C@H](Cc1ccccc1)NC(=O)[C@@H](NC(=O)CNC(=O)[C@H](Cc1c[nH]cn1)NC(=O)[C@H](CO)NC(=O)[C@@H](N)Cc1ccc(O)cc1)[C@@H](C)O)[C@@H](C)O)C(=O)N[C@@H](CCCCN)C(=O)N[C@@H](CCCNC(=N)N)C(=O)N[C@@H](C)C(=O)N[C@@H](CCC(N)=O)C(=O)N[C@@H](CCC(=O)O)C(=O)N[C@@H](Cc1ccccc1)C(=O)N[C@H](C(=O)N[C@H](C(=O)N[C@@H](Cc1c[nH]c2ccccc12)C(=O)N[C@@H](CC(C)C)C(=O)N[C@@H](CCC(=O)O)C(=O)N[C@@H](CC(=O)O)C(=O)N[C@@H](CCC(=O)O)C(=O)N1CCC[C@H]1C(=O)N[C@@H](CO)C(=O)N[C@@H](CO)C(=O)NCC(=O)N[C@@H](C)C(=O)N1CCC[C@H]1C(=O)N1CCC[C@H]1C(=O)N1CCC[C@H]1C(=O)N[C@@H](CO)C(=O)O)[C@@H](C)CC)C(C)C)C(=O)O` [Compound B26], the EC50 is above 1000 nM at human GLP-1R and 0.01 nM on human GCGR.

Take `CCCCCCCCCCCCCCCC(=O)N[C@@H](CCC(=O)NCCCC[C@H](NC(=O)[C@H](CC(=O)O)NC(=O)[C@H](CO)NC(=O)[C@@H](NC(=O)[C@H](Cc1ccccc1)NC(=O)[C@@H](NC(=O)CNC(=O)[C@H](Cc1c[nH]cn1)NC(=O)[C@H](CO)NC(=O)[C@@H](N)Cc1ccc(O)cc1)[C@@H](C)O)[C@@H](C)O)C(=O)N[C@@H](CO)C(=O)N[C@@H](CCCCN)C(=O)N[C@@H](Cc1ccc(O)cc1)C(=O)N[C@@H](CC(C)C)C(=O)N[C@@H](CC(=O)O)C(=O)NC(C)(C)C(=O)N[C@@H](CCCCN)C(=O)N[C@@H](CCCNC(=N)N)C(=O)N[C@@H](C)C(=O)N[C@@H](CCC(N)=O)C(=O)N[C@@H](CCC(=O)O)C(=O)N[C@@H](Cc1ccccc1)C(=O)N[C@H](C(=O)N[C@H](C(=O)N[C@@H](Cc1c[nH]c2ccccc12)C(=O)N[C@@H](CC(C)C)C(=O)N[C@@H](CCC(=O)O)C(=O)N[C@@H](CC(=O)O)C(=O)N[C@@H](CCC(=O)O)C(=O)N1CCC[C@H]1C(=O)N[C@@H](CO)C(=O)N[C@@H](CO)C(=O)NCC(=O)N[C@@H](C)C(=O)N1CCC[C@H]1C(=O)N1CCC[C@H]1C(=O)N1CCC[C@H]1C(=O)N[C@@H](CO)C(=O)O)[C@@H](C)CC)C(C)C)C(=O)O` [Compound B27] (H-YSHGTFTSDK([γGlu-Palmitoyl])SKYLD[Aib]KRAQEFVIWLEDEPSSGAPPPS-OH): the EC50 is 251 nM at human GLP-1R and 0.00316 nM at human GCGR.

As for `CCCCCCCCCCCCCCCC(=O)N[C@@H](CCC(=O)NCCCC[C@H](NC(=O)[C@@H](NC(=O)[C@H](Cc1ccccc1)NC(=O)[C@H](CCC(=O)O)NC(=O)[C@H](CCC(N)=O)NC(=O)[C@H](C)NC(=O)[C@H](CCCNC(=N)N)NC(=O)[C@H](C)NC(=O)[C@H](C)NC(=O)[C@H](CC(=O)O)NC(=O)[C@H](CC(C)C)NC(=O)[C@H](Cc1ccc(O)cc1)NC(=O)[C@H](CCCCN)NC(=O)[C@H](CO)NC(=O)[C@H](Cc1ccc(O)cc1)NC(=O)[C@H](CC(=O)O)NC(=O)[C@H](CO)NC(=O)[C@@H](NC(=O)[C@H](Cc1ccccc1)NC(=O)[C@@H](NC(=O)CNC(=O)[C@H](CCC(N)=O)NC(=O)[C@H](CO)NC(=O)[C@@H](N)Cc1ccc(O)cc1)[C@@H](C)O)[C@@H](C)O)C(C)C)C(=O)N[C@@H](Cc1c[nH]c2ccccc12)C(=O)N[C@@H](CC(C)C)C(=O)N[C@@H](CCC(=O)O)C(=O)N[C@@H](CC(=O)O)C(=O)N[C@@H](CCC(=O)O)C(=O)N1CCC[C@H]1C(=O)N[C@@H](CCCCN)C(=O)N[C@@H](CO)C(=O)N[C@@H](CCCCN)C(=O)N[C@@H](CO)C(=O)N1CCC[C@H]1C(=O)N1CCC[C@H]1C(=O)N1CCC[C@H]1C(=O)N[C@@H](CO)C(N)=O)C(=O)O` [Compound B34] (H-YSQGTFTSDYSKYLDAARAQEFVK([γGlu-Palmitoyl])WLEDEPKSKSPPPS-NH2), the EC50 was above 1000 nM at human GLP-1R and 0.158 nM on human GCGR.
